Patent US8664220B2, “Polycyclic compounds as lysophosphatidic acid receptor antagonists” (Amira Pharmaceuticals, Inc., priority 2009, dated 2014)

biological target: T1, human LPA1 (Homo sapiens, UniProt Q92633); assay: LPA1 calcium flux assay; assay type: cell-based; conditions: human LPA1 expressing CHO cells, stimulated with 10 nM LPA; read-out: HLPA1 Ca Flux IC50
T1 construct: the full-length cDNA for human LPA1 was obtained by PCR of the reverse transcription reaction; expressed in transfected cells
T1 sequence (Q92633 whole entry): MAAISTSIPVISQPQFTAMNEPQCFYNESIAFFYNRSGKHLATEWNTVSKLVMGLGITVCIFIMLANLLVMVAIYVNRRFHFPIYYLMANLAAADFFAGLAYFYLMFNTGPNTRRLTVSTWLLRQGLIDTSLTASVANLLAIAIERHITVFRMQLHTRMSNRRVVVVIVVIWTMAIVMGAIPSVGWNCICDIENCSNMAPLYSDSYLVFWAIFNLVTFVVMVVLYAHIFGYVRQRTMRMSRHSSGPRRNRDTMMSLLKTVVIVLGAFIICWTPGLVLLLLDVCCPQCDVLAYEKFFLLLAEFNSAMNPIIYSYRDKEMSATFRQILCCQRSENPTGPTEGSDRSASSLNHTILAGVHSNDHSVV
Method: Establishment of a CHO Cell Line Stably Expressing Human LPA1
A 1.1 kb cDNA encoding the human LPA1 receptor was cloned from human lung.
Human lung RNA (Clontech Laboratories, Inc. USA) was reverse transcribed using the RETROscript kit (Ambion, Inc.) and the full-length cDNA for human LPA1 was obtained by PCR of the reverse transcription reaction. The nucleotide sequence of the cloned human LPA1 was determined by sequencing and confirmed to be identical to the published human LPA1 sequence (An et al. Biochem. Biophys. Res. Commun. 231:619 (1997). The cDNA was cloned into the pcDNA5/FRT expression plasmid and transfected in CHO cells using lipofectamine 2000 (Invitrogen Corp., USA). Clones stably expressing human LPA1 were selected using hygromycin and identified as cells that show Ca-influx in response to LPA.
LPA1 and LPA3 Calcium Flux Assays
Human LPA1 or LPA3 expressing CHO cells are seeded at 20,000-45,000 cells per well in a 96-well poly-D-lysine coated plate one or two days before the assay. Prior to the assay, the cells are washed once with PBS and then cultured in serum-free media overnight. On the day of the assay, a calcium indicator dye (Calcium 4, Molecular Devices) in assay buffer (HBSS with Ca^2+ and Mg^2+ and containing 20 mM Hepes and 0.3% fatty-acid free human serum albumin) is added to each well and incubation continued for 1 hour at 37° C. 10 μl of test compounds in 2.5% DMSO are added to the cells and incubation continued at room temperature for 30 minutes. Cells are the stimulated by the addition of 10 nM LPA and intracellular Ca^2+ measured using the Flexstation 3 (Molecular Devices). IC50s are determined using Graphpad prism analysis of drug titration curves.

IC50 [nM]	Structure (SMILES)
< 300	Cc1noc(-c2ccc(-c3ccc(C4(C(=O)O)CC4)cc3)cc2)c1C(O)c1cccc(-c2ccccc2)c1 (centres unmarked) [Compound 1-53, 1-{4′-[4-(Biphenyl-3-yl-hydroxy-methyl)-3-methyl-isoxazol-5-yl]-biphenyl-4-yl}-cyclopropanecarboxylic acid]
1000 to 50000	Cc1noc(-c2ccc(-c3ccc(C4(C(=O)O)CC4)cc3)cc2)c1C(O)c1ccc(OCc2ccccc2)cc1 (centres unmarked) [Compound 1-54, 1-(4′-{4-[(4-Benzyloxy-phenyl)-hydroxy-methyl]-3-methyl-isoxazol-5-yl}-biphenyl-4-yl)-cyclopropanecarboxylic acid]
< 300	Cc1noc(-c2ccc(-c3ccc(C4(C(=O)O)CC4)cc3)cc2)c1C(O)c1cn(C(C)c2ccccc2)nn1 (centres unmarked) [Compound 1-55, 1-[4′-(4-{Hydroxy-[1-(1-phenyl-ethyl)-1H-[1,2,3]triazol-4-yl]-methyl}-3-methyl-isoxazol-5-yl)-biphenyl-4-yl]-cyclopropanecarboxylic acid]
1000 to 50000	Cc1noc(-c2ccc(-c3ccc(C4(C(=O)O)CC4)cc3)cc2)c1C(O)c1cn(Cc2ccccc2C(F)(F)F)nn1 (centres unmarked) [Compound 1-56, 1-[4′-(4-{Hydroxy-[1-(2-trifluoromethyl-benzyl)-1H-[1,2,3]triazol-4-yl]-methyl}-3-methyl-isoxazol-5-yl)-biphenyl-4-yl]-cyclopropanecarboxylic acid]
< 300	Cc1noc(-c2ccc(-c3ccc(C4(C(=O)O)CC4)cc3)cc2)c1C(O)c1cn(Cc2cccc(Cl)c2)nn1 (centres unmarked) [Compound 1-57, 1-[4′-(4-{[1-(3-Chloro-benzyl)-1H-[1,2,3]triazol-4-yl]-hydroxy-methyl}-3-methyl-isoxazol-5-yl)-biphenyl-4-yl]-cyclopropanecarboxylic acid]
< 300	Cc1noc(-c2ccc(-c3ccc(C4(C(=O)O)CC4)cc3)cc2)c1C(O)c1cccc(Cc2ccccc2)c1 (centres unmarked) [Compound 1-58, 1-(4′-{4-[(3-Benzyl-phenyl)-hydroxy-methyl]-3-methyl-isoxazol-5-yl}-biphenyl-4-yl)-cyclopropanecarboxylic acid]
< 300	Cc1noc(-c2ccc(-c3ccc(C4(C(=O)O)CC4)cc3)cc2)c1C(O)c1cncc(Cc2ccccc2)c1 (centres unmarked) [Compound 1-59, 1-(4′-{4-[(5-Benzyl-pyridin-3-yl)-hydroxy-methyl]-3-methyl-isoxazol-5-yl}-biphenyl-4-yl)-cyclopropanecarboxylic acid]
< 300	Cc1noc(-c2ccc(-c3ccc(C4(CC(=O)O)CC4)cc3)cc2)c1C(O)c1nnc(Cc2ccccc2)o1 (centres unmarked) [Compound 1-60, [1-(4′-{4-[(5-Benzyl-[1,3,4]oxadiazol-2-yl)-hydroxy-methyl]-3-methyl-isoxazol-5-yl}-biphenyl-4-yl)-cyclopropyl]-acetic acid]
< 300	Cc1noc(-c2ccc(-c3ccc(C4(C(=O)O)CC4)cc3)cc2)c1C(O)c1cn(Cc2ccccc2Cl)nn1 (centres unmarked) [Compound 1-61, 1-[4′-(4-{[1-(2-Chloro-benzyl)-1H-[1,2,3]triazol-4-yl]-hydroxy-methyl}-3-methyl-isoxazol-5-yl)-biphenyl-4-yl]-cyclopropanecarboxylic acid]
< 300	Cc1noc(-c2ccc(-c3ccc(C4(C(=O)O)CC4)cc3)cc2)c1C(O)c1cn(Cc2ccc(Cl)cc2)nn1 (centres unmarked) [Compound 1-62, 1-[4′-(4-{[1-(4-Chloro-benzyl)-1H-[1,2,3]triazol-4-yl]-hydroxy-methyl}-3-methyl-isoxazol-5-yl)-biphenyl-4-yl]-cyclopropanecarboxylic acid]
< 300	Cc1noc(-c2ccc(-c3ccc(C4(C(=O)O)CC4)cc3)cc2)c1[C@@H](O)c1cn(Cc2ccccc2Cl)nn1 [Compound 1-63, 1-[4′-(4-{(R)-[1-(2-Chloro-benzyl)-1H-[1,2,3]triazol-4-yl]-hydroxy-methyl}-3-methyl-isoxazol-5-yl)-biphenyl-4-yl]-cyclopropanecarboxylic acid]
< 300	Cc1noc(-c2ccc(-c3ccc(C4(C(=O)O)CC4)cc3)cc2)c1C(O)c1cn(Cc2ccc(Cl)c(Cl)c2)nn1 (centres unmarked) [Compound 1-64, 1-[4′-(4-{[1-(3,4-Dichloro-benzyl)-1H-[1,2,3]triazol-4-yl]-hydroxy-methyl}-3-methyl-isoxazol-5-yl)-biphenyl-4-yl]-cyclopropanecarboxylic acid]
1000 to 50000	Cc1noc(-c2ccc(-c3ccc(CC(=O)O)cc3)cc2)c1C(O)c1cn(Cc2ccc(Cl)c(Cl)c2)nn1 (centres unmarked) [Compound 1-65, [4′-(4-{[1-(3,4-Dichloro-benzyl)-1H-[1,2,3]triazol-4-yl]-hydroxy-methyl}-3-methyl-isoxazol-5-yl)-biphenyl-4-yl]-acetic acid]
< 300	Cc1noc(-c2ccc(-c3ccc(C4(C(=O)O)CC4)cc3)cc2)c1[C@@H](O)c1cn([C@H](C)c2ccccc2)nn1 [Compound 1-67, 1-[4′-(4-{(R)-Hydroxy-[1-((R)-1-phenyl-ethyl)-1H-[1,2,3]triazol-4-yl]-methyl}-3-methyl-isoxazol-5-yl)-biphenyl-4-yl]-cyclopropanecarboxylic acid]
< 300	Cc1noc(-c2ccc(-c3ccc(C4(C(=O)O)CC4)cc3)cc2)c1Nc1cccc(-c2ccccc2)n1 [Compound 1-68, 1-{4′-[3-Methyl-4-(6-phenyl-pyridin-2-ylamino)-isoxazol-5-yl]-biphenyl-4-yl}-cyclopropanecarboxylic acid]
< 300	Cc1noc(-c2ccc(-c3ccc(C4(C(=O)O)CC4)cc3)cc2)c1C(O)c1cccc(Cc2ccccc2)n1 (centres unmarked) [Compound 1-69, 1-(4′-{4-[(6-Benzyl-pyridin-2-yl)-hydroxy-methyl]-3-methyl-isoxazol-5-yl}-biphenyl-4-yl)-cyclopropanecarboxylic acid]
< 300	Cc1ccccc1Cn1cc(C(O)c2c(C)noc2-c2ccc(-c3ccc(C4(C(=O)O)CC4)cc3)cc2)nn1 (centres unmarked) [Compound 1-70, 1-[4′-(4-{Hydroxy-[1-(2-methyl-benzyl)-1H-[1,2,3]triazol-4-yl]-methyl}-3-methyl-isoxazol-5-yl)-biphenyl-4-yl]-cyclopropanecarboxylic acid]
< 300	Cc1noc(-c2ccc(-c3ccc(C4(C(=O)O)CC4)cc3)cc2)c1C(O)c1cn(Cc2c(F)cccc2Cl)nn1 (centres unmarked) [Compound 1-71, 1-[4′-(4-{[1-(2-Chloro-6-fluoro-benzyl)-1H-[1,2,3]triazol-4-yl]-hydroxy-methyl}-3-methyl-isoxazol-5-yl)-biphenyl-4-yl]-cyclopropanecarboxylic acid]
300 to 1000	Cc1noc(-c2ccc(-c3ccc(C4(C(=O)O)CC4)cc3)cc2)c1C(O)c1cn(Cc2c(Cl)cccc2Cl)nn1 (centres unmarked) [Compound 1-72, 1-[4′-(4-{[1-(2,6-Dichloro-benzyl)-1H-[1,2,3]triazol-4-yl]-hydroxy-methyl}-3-methyl-isoxazol-5-yl)-biphenyl-4-yl]-cyclopropanecarboxylic acid]
< 300	Cc1noc(-c2ccc(-c3ccc(C4(C(=O)O)CC4)cc3)cc2)c1Nc1cccc(Cc2ccccc2)n1 [Compound 1-73, 1-{4′-[4-(6-Benzyl-pyridin-2-ylamino)-3-methyl-isoxazol-5-yl]-biphenyl-4-yl}-cyclopropanecarboxylic acid]
< 300	Cc1noc(-c2ccc(-c3ccc(C4(C(=O)O)CC4)cc3)cc2)c1Nc1cccc(-c2ccccc2)c1 [Compound 1-74, 1-{4′-[4-(Biphenyl-3-ylamino)-3-methyl-isoxazol-5-yl]-biphenyl-4-yl}-cyclopropanecarboxylic acid]
300 to 1000	Cc1noc(-c2ccc(-c3ccc(C4(C(=O)O)CC4)cc3)cc2)c1Nc1ccc(-c2ccccc2)cc1 [Compound 1-75, 1-{4′-[4-(Biphenyl-4-ylamino)-3-methyl-isoxazol-5-yl]-biphenyl-4-yl}-cyclopropanecarboxylic acid]
< 300	Cc1noc(-c2ccc(-c3ccc(CC(=O)O)cc3)cc2)c1Nc1cccc(-c2ccccc2)n1 [Compound 1-76, {4′-[3-Methyl-4-(6-phenyl-pyridin-2-ylamino)-isoxazol-5-yl]-biphenyl-4-yl}-acetic acid]
< 300	Cc1noc(-c2ccc(-c3ccc(C4(C(=O)O)CC4)cc3)cc2)c1Nc1cccc(-c2cccc(C(F)(F)F)c2)n1 [Compound 1-77, 1-(4′-{3-Methyl-4-[6-(3-trifluoromethyl-phenyl)-pyridin-2-ylamino]-isoxazol-5-yl}-biphenyl-4-yl)-cyclopropanecarboxylic acid]
< 300	Cc1noc(-c2ccc(-c3ccc(C4(C(=O)O)CC4)cc3)cc2)c1Nc1cncc(-c2ccccc2)n1 [Compound 1-78, 1-{4′-[3-Methyl-4-(6-phenyl-pyrazin-2-ylamino)-isoxazol-5-yl]-biphenyl-4-yl}-cyclopropanecarboxylic acid]
< 300	Cc1noc(-c2ccc(-c3ccc(C4(C(=O)O)CC4)cc3)cc2)c1Nc1cccc(Oc2ccccc2)n1 [Compound 1-79, 1-{4′-[3-Methyl-4-(6-phenoxy-pyridin-2-ylamino)-isoxazol-5-yl]-biphenyl-4-yl}-cyclopropanecarboxylic acid]
